Experimental data reported in ChEMBL document CHEMBL1201862, “PubChem BioAssay data set” (2004).
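How tested: cells in 96-well plates exposed to compound for 48 hours at five concentrations. Abbreviation: GI50, concentration required for 50% inhibition of growth.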 Calls of active or inactive are those of the source. Cut-off read from the data, not from the text of the source: active = GI50 up to about 1.1 µM and inactive = higher.

How the values were obtained:
Assay in all cases: DTP human tumour cell line panel, 48 h
[1] = tested on: IGROV-1
[2] = tested on: DU-145
[3] = tested on: M14
[4] = tested on: HT-29
[5] = tested on: OVCAR-3
[6] = tested on: LOX IMVI
[7] = tested on: NCI-H23
[8] = tested on: HCC 2998
[9] = tested on: PC-3
[10] = tested on: SN12C
[11] = tested on: MCF7
[12] = tested on: SK-MEL-5
[13] = tested on: TK-10
[14] = tested on: SF-268
[15] = tested on: SF-539
[16] = tested on: UACC-257
[17] = tested on: HL-60
[18] = tested on: SK-MEL-28
[19] = tested on: RXF 393
[20] = tested on: SR
[21] = tested on: OVCAR-8
[22] = tested on: HCT-116
[23] = tested on: T47D
[24] = tested on: SK-OV-3
[25] = tested on: OVCAR-4
[26] = tested on: CAKI-1
[27] = tested on: MDA-MB-231
[28] = tested on: HCT-15
[29] = tested on: EKVX
[30] = tested on: SNB-75
[31] = tested on: NCI-H522
[32] = tested on: MOLT-4
[33] = tested on: OVCAR-5
[34] = tested on: HOP-92
[35] = tested on: U-251
[36] = tested on: 786-0
[37] = tested on: SW-620
[38] = tested on: ACHN
[39] = tested on: BT-549
[40] = tested on: KM12
[41] = tested on: MDA-N
[42] = tested on: NCI/ADR-RES
[43] = tested on: NCI-H460
[44] = tested on: COLO 205
[45] = tested on: K562
[46] = tested on: Hs-578T
[47] = tested on: UO-31
[48] = tested on: CCRF-CEM
[49] = tested on: SF-295
[50] = tested on: A549
[51] = tested on: SK-MEL-2
[52] = tested on: RPMI-8226
[53] = tested on: UACC-62
[54] = tested on: Malme-3M
[55] = tested on: A498
[56] = tested on: MDA-MB-435
[57] = tested on: HOP-62
[58] = tested on: SNB-19
[59] = tested on: NCI-H226

In the case of COC(=O)NC(Cc1ccccc1)NC(C)=O (stereo not given), the GI50 [1] is reported as > 100 µM (inactive), the GI50 [2] is reported as > 100 µM (inactive) and the GI50 [3] is reported as > 100 µM (inactive). For the same compound, the GI50 [4] was > 100 µM (inactive), the GI50 [5] was > 100 µM (inactive) and the GI50 [6] was > 100 µM (inactive). The GI50 [7] was > 100 µM (inactive), the GI50 [8] was > 100 µM (inactive) and the GI50 [9] was > 100 µM (inactive). The GI50 [10] was > 100 µM (inactive), the GI50 [11] was > 100 µM (inactive) and the GI50 [12] was > 100 µM (inactive). The GI50 [13] was > 100 µM (inactive), the GI50 [14] was > 100 µM (inactive) and the GI50 [15] was > 100 µM (inactive). The GI50 [16] was > 100 µM (inactive), the GI50 [17] was > 100 µM (inactive) and the GI50 [18] was > 100 µM (inactive). The GI50 [19] was > 100 µM (inactive), the GI50 [20] was > 100 µM (inactive) and the GI50 [21] was > 100 µM (inactive). The GI50 [22] was > 100 µM (inactive), the GI50 [23] was > 100 µM (inactive) and the GI50 [24] was > 100 µM (inactive). The GI50 [25] was > 100 µM (inactive), the GI50 [26] was > 100 µM (inactive) and the GI50 [27] was 71 µM (inactive). The GI50 [28] was > 100 µM, the GI50 [29] was > 100 µM (inactive) and the GI50 [30] was > 100 µM (inactive). For the same compound, the GI50 [31] was > 100 µM (inactive), the GI50 [32] was > 100 µM (inactive) and the GI50 [33] was > 100 µM (inactive). For the same compound, the GI50 [34] was > 100 µM (inactive), the GI50 [35] was > 100 µM (inactive) and the GI50 [36] was > 100 µM (inactive). For the same compound, the GI50 [37] was > 100 µM (inactive), the GI50 [38] was > 100 µM (inactive) and the GI50 [39] was > 100 µM (inactive). The GI50 [40] was > 100 µM (inactive), the GI50 [41] was > 100 µM (inactive) and the GI50 [42] was > 100 µM (inactive). The GI50 [43] was > 100 µM (inactive), the GI50 [44] was > 100 µM (inactive) and the GI50 [45] was > 100 µM (inactive). The GI50 [46] was 5.3 µM (inactive), the GI50 [47] was > 100 µM (inactive) and the GI50 [48] was > 100 µM (inactive). The GI50 [49] was > 100 µM (inactive), the GI50 [50] was > 100 µM (inactive) and the GI50 [51] was > 100 µM (inactive). For the same compound, the GI50 [52] was > 100 µM (inactive), the GI50 [53] was > 100 µM (inactive) and the GI50 [54] was > 100 µM (inactive). The GI50 [55] was > 100 µM (inactive), the GI50 [56] was > 100 µM (inactive) and the GI50 [57] was > 100 µM (inactive). For the same compound, the GI50 [58] was > 100 µM (inactive).

For CCOC(=O)c1ccc(NC(NC(=O)CC)(C(F)(F)F)C(F)(F)F)cc1, the GI50 [1] was > 100 µM (inactive), the GI50 [2] was > 100 µM (inactive) and the GI50 [3] was > 100 µM (inactive). The GI50 [4] was > 100 µM (inactive), the GI50 [5] was > 100 µM (inactive) and the GI50 [6] was 96.2 µM (inactive). The GI50 [7] was > 100 µM (inactive), the GI50 [8] was > 100 µM (inactive) and the GI50 [9] was 60.3 µM (inactive). For the same compound, the GI50 [11] was > 100 µM (inactive), the GI50 [12] was > 100 µM (inactive) and the GI50 [13] was > 100 µM (inactive). The GI50 [14] was > 100 µM (inactive), the GI50 [15] was > 100 µM (inactive) and the GI50 [16] was > 100 µM (inactive). The GI50 [17] was > 100 µM (inactive), the GI50 [18] was > 100 µM (inactive) and the GI50 [19] was > 100 µM (inactive). For the same compound, the GI50 [20] was 14.1 µM (inactive), the GI50 [21] was > 100 µM (inactive) and the GI50 [22] was > 100 µM (inactive). The GI50 [23] was > 100 µM (inactive), the GI50 [24] was > 100 µM (inactive) and the GI50 [26] was > 100 µM (inactive). The GI50 [27] was > 100 µM (inactive), the GI50 [28] was 97.1 µM and the GI50 [29] was > 100 µM (inactive). For the same compound, the GI50 [59] was > 100 µM (inactive), the GI50 [30] was > 100 µM (inactive) and the GI50 [31] was > 100 µM (inactive). The GI50 [32] was 55.5 µM (inactive), the GI50 [33] was > 100 µM (inactive) and the GI50 [34] was > 100 µM (inactive). The GI50 [35] was > 100 µM (inactive), the GI50 [36] was > 100 µM (inactive) and the GI50 [37] was > 100 µM (inactive). The GI50 [38] was 55 µM (inactive), the GI50 [39] was > 100 µM (inactive) and the GI50 [40] was 59.6 µM (inactive). For the same compound, the GI50 [41] was > 100 µM (inactive), the GI50 [42] was > 100 µM (inactive) and the GI50 [43] was > 100 µM (inactive). The GI50 [44] was > 100 µM (inactive), the GI50 [45] was 39.3 µM (inactive) and the GI50 [46] was > 100 µM (inactive). The GI50 [47] was 36.2 µM (inactive), the GI50 [48] was > 100 µM (inactive) and the GI50 [49] was > 100 µM (inactive). The GI50 [50] was > 100 µM (inactive), the GI50 [51] was > 100 µM (inactive) and the GI50 [52] was > 100 µM (inactive). The GI50 [53] was 34.4 µM (inactive), the GI50 [54] was > 100 µM (inactive) and the GI50 [55] was > 100 µM (inactive). The GI50 [56] was > 100 µM (inactive), the GI50 [57] was > 100 µM (inactive) and the GI50 [58] was > 100 µM (inactive).
